Source: ChEMBL document CHEMBL4823282, “Novel Broad-Spectrum Antimicrobial Peptide Derived from Anoplin and Its Activity on Bacterial Pneumonia in Mice” (J Med Chem, 2021)
Activity calls are given as the source filed them. The calls are words filed in the database; no cut-off is given here. Where a SMILES comes first, the peptide text is derived from it. Bridges are numbered along the chain shown (N, C = ends). [ ]: non-standard residue; d: D form. The star is where a group is joined. X1 = CC[C@H](C)CCCCC(=O)*; Dab = NCC[C@H](N)C(=O)O

Assays:
[1] = Induction of renal interstitial cell hemorrhage in BALB/C mouse at 82 mg/kg, ip administered as single dose by hematoxylin and eosin staining based assay; assay type: organism-based; conditions: in vivo
Escherichia coli = experiment: Synergistic antibacterial activity against Escherichia coli ATCC 25922 at 2 times MIC incubated for 18 to 24 hrs in presence of 2 times MIC of gentamycin by broth microdilution assay based checkerboard assay; assay type: functional; conditions: time 18-24 hrs
[2] = Toxicity in BALB/C mouse assessed as mouse death at 15 to 25 mg/kg, ip measured after 24 hrs; assay type: organism-based; conditions: in vivo, dose 15-25 mg/kg
Staphylococcus aureus = experiment: Disruption of membrane integrity in Staphylococcus aureus ATCC 25923 assessed as membrane creeping at 1 times MIC incubated for 0.5 to 2 hrs by scanning electron microscopy; assay type: functional, organism-based; conditions: time 0.5-2 hrs
[3] = Toxicity in BALB/C mouse assessed as induction of tissue hemorrhage at 19 mg/kg, ip administered as single dose by hematoxylin and eosin staining based assay; assay type: organism-based; conditions: in vivo
Klebsiella pneumoniae [4] = experiment: Antibacterial activity against Klebsiella pneumoniae ATCC 700603 infected in BALB/C mouse assessed as reduction in bacterial load at 5 to 10 mg/kg, ip by hematoxylin and eosin staining based assay; assay type: functional, organism-based; conditions: dose 5-10 mg/kg
Klebsiella pneumoniae [5] = experiment: Synergistic antibacterial activity against Klebsiella pneumoniae ATCC 700603 at 2 times MIC incubated for 18 to 24 hrs in presence of 2 times MIC of polymyxin B by broth microdilution assay based checkerboard assay; assay type: functional; conditions: time 18-24 hrs
Lipopolysaccharide (LPS) = experiment: Binding affinity to LPS (unknown origin) assessed as bacterial killing at 2 times MIC preincubated for 1 hr followed by Escherichia coli ATCC 25922 addition and measured after 2 hrs by absorbance method relative to polymyxin B; conditions: time 3.0 hrs
[6] = Toxicity in BALB/C mouse assessed as effect on spleen at 19 mg/kg, ip administered as single dose by hematoxylin and eosin staining based assay; assay type: organism-based; conditions: in vivo
[7] = Toxicity in BALB/C mouse assessed as effect on heart at 19 mg/kg, ip administered as single dose by hematoxylin and eosin staining based assay; assay type: organism-based; conditions: in vivo
Klebsiella pneumoniae [8] = experiment: Disruption of membrane integrity in Klebsiella pneumoniae ATCC 700603 assessed as membrane creeping at 1 times MIC incubated for 0.5 to 2 hrs by scanning electron microscopy; assay type: functional, organism-based; conditions: time 0.5-2 hrs
[9] = Induction of nephrotoxicity in BALB/C mouse at 82 mg/kg, ip administered as single dose by hematoxylin and eosin staining based assay; assay type: organism-based; conditions: in vivo
[10] = Toxicity in BALB/C mouse assessed as induction of inflammatory reaction at 19 mg/kg, ip administered as single dose by hematoxylin and eosin staining based assay; assay type: organism-based; conditions: in vivo
Cell membrane [11] = experiment: Disruption of membrane integrity in Klebsiella pneumoniae ATCC 700603 assessed as membrane shrinking at 1 times MIC measured within 0.5 to 2 hrs by scanning electron microscopy; assay type: subcellular; conditions: Klebsiella pneumoniae 700603, time 0.5-2 hrs
Klebsiella pneumoniae [12] = experiment: Antibiofilm activity against Klebsiella pneumoniae ATCC 700603 at 2 to 4 times MIC incubated for 24 hrs by crystal violet staining based assay; assay type: functional, organism-based
Klebsiella pneumoniae [13] = experiment: Reduction in inflammatory cell infiltration in lung of BALB/C mouse infected with Klebsiella pneumoniae ATCC 700603 at 5 mg/kg, ip by hematoxylin and eosin staining based assay; assay type: functional, organism-based
Cell membrane [14] = experiment: Disruption of membrane integrity in Klebsiella pneumoniae ATCC 700603 assessed as membrane swelling at 1 times MIC incubated for 0.5 to 2 hrs by scanning electron microscopy; assay type: subcellular; conditions: Klebsiella pneumoniae 700603, time 0.5-2 hrs
[15] = Toxicity in BALB/C mouse infected with Klebsiella pneumoniae ATCC 700603 assessed as hepatic hemorrhage at 5 mg/kg, ip by hematoxylin and eosin staining based assay; assay type: organism-based; conditions: in vivo
Cell membrane [16] = experiment: Induction of outer membrane permeabilization in Klebsiella pneumoniae ATCC 700603 at 4MIC measured within 20 mins by N-phenylnaphthylamine dye based fluorescent method; assay type: subcellular; conditions: Klebsiella pneumoniae 700603

SMILES	Activity [1]	FIC (Escherichia coli)	Activity [2]	Activity (Staphylococcus aureus)	Activity [3]	Activity (Klebsiella pneumoniae [4])	FIC (Klebsiella pneumoniae [5])	fold change (FC) (Lipopolysaccharide (LPS))	Activity [6]	Activity [7]	Activity (Klebsiella pneumoniae [8])	Activity [9]	Activity [10]	Activity (Cell membrane [11])	Activity (Klebsiella pneumoniae [12])	Activity (Klebsiella pneumoniae [13])	Activity (Cell membrane [14])	Activity [15]	Activity (Cell membrane [16])
NCCCC[C@H](NC(=O)[C@H](CCCCN)NC(=O)[C@H](Cc1c[nH]c2ccccc12)NC(=O)[C@H](CCCCN)NC(=O)[C@H](CCCCN)NC(=O)[C@H](Cc1c[nH]c2ccccc12)NC(=O)[C@H](Cc1c[nH]c2ccccc12)NC(=O)[C@@H](N)CCCCN)C(=O)N[C@@H](Cc1c[nH]c2ccccc12)C(=O)N[C@@H](Cc1c[nH]c2ccccc12)C(N)=O (H-KWWKKWKKWW-NH2)	Toxic	0.5625	Toxic	Active	Toxic	Active	0.3125	2	Toxic	Toxic	Active	Toxic	Toxic	Active	–	–	–	–	–
CC[C@H](C)CCCCC(=O)N[C@@H](CCN)C(=O)N[C@H](C(=O)N[C@@H](CCN)C(=O)N[C@H]1CCNC(=O)[C@H]([C@@H](C)O)NC(=O)[C@H](CCN)NC(=O)[C@H](CCN)NC(=O)[C@H](CC(C)C)NC(=O)[C@@H](Cc2ccccc2)NC(=O)[C@H](CCN)NC1=O)[C@@H](C)O (X1-[Dab]T[Dab][Dab][Dab][dF]L[Dab][Dab]T; lactam 4-C)	–	–	–	–	–	–	–	–	–	–	–	–	–	–	Active	inactive	Active	Toxic	Active
